Test results reported in US12006509B2, “Macrotumor engineering” (Purdue Research Foundation, priority 2019, dated 2024).
“Also recorded” adds a separate entry of the source.

Key:
[1] = Stiffness measurement of collagen I with fibronectin (compression test); type: physicochemical; conditions: fibronectin with collagen I vs collagen I only
Protocol: FIG. 3. Impact of fibronectin on macrotumors. Small tumors (9000) preformed in Matrigel™ for 10 days were used to make macrotumors as described in the Methods section with or without incubation with 100 μg/ml fibronectin. a. Macrotumors prepared without fibronectin incubation and cultured for 24 hours (right images at 40× magnification). b. Comparison of volumes and areas of macrotumors with (+) or without (−) incubation with fibronectin after 30 minutes (0.5 h) and 24 h of culture; n=5, mean+/−SEM. c. Stiffness of collagen I (Young's modulus, Pa) prepared with Collagen I, and measured with customized eXpert 4000, ADMET by constant pressure on unconstrained sample (see reference 15 for details for this procedure). d. Staining with H&E of macrotumors prepared without incubation with fibronectin. e. representative images of macrotumors and nodules (mixed in collagen I for 10 minutes without prior centrifugation). Shown is the bar graph of the percentage of cells positive for proliferation marker Ki67 staining after 24 h of culture of macrotumors in collagen I or collagen I+fibronectin (F), or nodules (mixed in collagen I for 10 minutes without prior centrifugation); n=2; 150 nuclei analyzed per biological replicate. […]
The elastic modulus of cultured samples can be calculated from engineered stress-strains curve attained with compression tests. […]

[2] = test system: macrotumors formed by T4-2 cells; experiment: Doxorubicin uptake in macrotumors (autofluorescence, confocal Z-sections); type: cell-based; conditions: 4-h treatment, 10 μg/ml [17.25 μM], macrotumors cultured 24 h
Protocol: FIG. 1. Differential centrifugation of small tumor nodules leads to the formation of simple and mixed types of macrotumors with in vivo like pathological features. The formation of tumors of up to 600 μm in size was induced by culturing either IDC T4-2 cells or S2 DCIS cells in Matrigel™ drip culture for 10 days. Upon release from Matrigel™ with dispase treatment, tumor nodules were incubated with 100 μg/ml fibronectin solution, spun down either as a single type of nodules (9,000 nodules; a-e) or as mixed types of nodules (4,500 nodules of each tumor type; f-g) and embedded in collagen I (2,000 Pa) as detailed in the methods section. a. […] Macrotumors cultured for 24 h were incubated with 17.25 μM doxorubicin for four hours and imaged with bright field and fluorescence microscopy (doxorubicin autofluorescence in the red channel). […] Fluorescence images of macrotumors formed by DiI-stained T4-2 nodules, CellMask™ Green-stained S2 nodules and mixed types of macrotumors with T4-2 and S2 nodules (either mixed before centrifugation ‘T4-2/S2 by mixing’ or sequentially centrifuged ‘T4-2/S2 by stacking’) taken with a Nikon®ECLIPSE® Ts2 inverted microscope (Nikon, Melville, NY). g. […] In D, 50 nuclei analyzed in two biological replicates for macrotumors and 100 nuclei analyzed per section of three tissue samples; *P<0.05 **P<0.01; ANOVA with Tukey's posthoc test. […]

[3] = test system: macrotumors formed by T4-2 cells; experiment: Weekly doxorubicin treatment of macrotumors, pathological assessment of nuclear morphology; type: cell-based; conditions: 10 μM; 24 h weekly for three weeks; assessed at days 7 and 21
Protocol: (§1) FIG. 6. Effect of Doxorubicin treatment on macrotumors formed by T4-2 cells. a. Images of macrotumors treated (Dox) or untreated (Control) with 10 μM doxorubicin at day 0, for 24 hours and further cultured for six days. n=two replicates for this experiment (1, 2). b. Shown are the surface areas of macrotumors from A measured at days 0, 1, 2, 4, 5, and 7. c. Another experiment with 24 h Doxorubicin (Dox) treatment at day 0, 7 and 14 with images taken at day 0 and 21. Size bars, 5 mm
Macrotumors were fixed in 4% paraformaldehyde (Santa Cruz; Dallas, TX) prior to embedding in paraffin at the Histology Research Laboratory, Department of Comparative Pathobiology, Purdue University, according to standard protocols used for tumor sample embedding, sectioning, immunohistochemistry with polyclonal antibodies against caspase 3 (1/200; Cell Signaling Tech, Danvers, MA) and Ki67 (1/500; Millipore-Sigma, St Louis, MO) and hematoxylin & eosin (H&E) staining. Certain sections were stained with toluidine blue (SigmaAldrich, St. Louis, MO) before H&E staining.

[4] = test system: macrotumors formed by T4-2 cells; experiment: Doxorubicin treatment of macrotumors, tumor size (surface area); type: cell-based; conditions: 10 μM; 24 h, followed by six-day resting period
Protocol: as §1
Images of whole tumors in culture and of paper scaffold were taken with a Plugable USB 2.0 Digital Microscope (Plugable Technologies, Redmond, WA). Tumor size (short and long axis) was measured with ImageJ. For pathological assessment slides were either directly visualized by microscopy or scanned (20× objective) with an Aperio/Pathology Slide Scanner (Leica Biosystems Inc., Buffalo Grove, IL).

Row | Molecule | ECM stiffness [1] | drug uptake / penetration in the macrotumor [2] | nuclear morphology (pathological assessment) [3] | tumor size [4]
1 | Fibronectin | slightly raised |  |  | 
2 | COc1cccc2c1C(=O)c1c(O)c3c(c(O)c1C2=O)C[C@@](O)(C(=O)CO)C[C@@H]3O[C@H]1C[C@H](N)[C@H](O)[C@H](C)O1 [doxorubicin] |  | penetration of doxorubicin in all areas of the macrotumor; also recorded: drug uptake occurred throughout the macrotumors | increasingly affected | appeared to decrease tumor size after day 4
